Assay results taken from EP0369657A2, “Chromogenic substrate for esterase and immunoassay using same” (Becton Dickinson and Company, priority 1988, dated 1990).

Tested on: rabbit liver esterase (RLE)
Experiment: Stopping of DCIPB color formation in the dual enzyme assay for Influenza A
Format: biochemical
Settings: added after five minute incubation with DCIPB; TFAP as 40 µL of 1 mM in 50 mM Tris, pH 7.5; read at 620 nm
Method: A mixture of the blocked inhibitor from Example II (1 x 10⁻⁴M) and rabbit liver esterase (RLE) (5 x 10⁻⁹M) in 50 mM diethanolamine (DEOA), pH 9.0 was added to each well (150 µL), and incubated at room temperature for 20 minutes.
A solution of DCIPB (0.35 mM in 50 mM Tris, pH 7.5, containing 20% methanol) was added to each well (150 µL). After a five minute incubation, 40 µL of a solution of 1 mM 1,1,1-trifluoroacetophenone (TFAP) in 50 mM Tris, pH 7.5, was added to stop the reaction.
The same effect was achieved by the addition of free inhibitor (product B from Example II). After "stopping," test wells having a high concentration of antigen remained colorless for several hours.

Row | Compound | effect on color formation process
1 | O=C(c1ccccc1)C(F)(F)F [1,1,1-trifluoroacetophenone (TFAP), 1,1,1-trifluoroacetophenone] | stopped the color formation process
2 | O=C(CCc1ccc(O)cc1)C(F)(F)F [compound 3, 1,1,1-trifluoro-4-(4-hydroxyphenyl)-2-butanone] | same effect
